According to publication PMC11062894, “Protein-based bandpass filters for controlling cellular signaling with chemical inputs” (Nature Chemical Biology, 2023):
“And” between values parts separate entries of the source, which are not always exact repeats. Equal entries are not always repeated.

Tested on: GEMS receptors with CBPA11 (BclXL–LD3 and BclXLhigh variants), STAT3-driven SEAP in HEK293T cells
Assay: GEMS SEAP reporter assay, CBPA11 (BclXLhigh, LD3-v and BclXL-v variants) with A-1155463
Type: cell-based
Design: key to Raw data (SEAP) / SEAP, replicate values / Raw data of Figure 5b / Raw data Figure 5e / Raw data of Independent repeat of CBPA11-v1 vs CBPA11-v1-LD3v3 / Raw data of Independent repeat of CBPA11-v3 vs CBPA11-v3-LD3v3 / Raw data of Figure 5b, CBPA11-v1-LD3v3 (SEAP reporter raw value, single replicate) / Raw data of Figure 5b, CBPA11-v1 (SEAP reporter raw value, single replicate): SEAP activity in U/L in culture supernatant
Details: for Normalized data (SEAP) / Raw data (SEAP): SuppFigure 9c, LD3v3
From the text: To rationally design a CBP responding to a chemical input, we used BclXL as the druglow receptor, LD3 as the designed binder and a designed BclXL variant as the drughigh receptor (referred to as BclXLhigh) to construct a CBP responsive to BclXL inhibitors (Fig. 4a). To design BclXLhigh, we used a multistate design computational protocol described elsewhere[26] […] Thus, BclXLhigh-v(1–3) were chosen as the functional drughigh receptors, resulting in three A-1155463-controlled CBPs (referred to as CBPA11-v(1–3)) (Fig. 4c–e).
HEK293T cells were seeded in a 96-well plate 24 h before transfection. The transfection mix in each well consisted of 3 ng of constitutive human CMV promoter driven mammalian STAT3 expression vector (PhCMV-STAT3-pA), 30 ng of STAT3-induced reporter expression (OStat3-PhCMVmin-SEAP-pA) and 50 ng of expression vectors for each GEMS receptor chain (PSV40-IgK-(drughigh receptor)-EpoRm-IL-6RBm-pA and PSV40-IgK-(druglow receptor-GGGGSX3-LD3)-EpoRm-IL-6RBm-pA). For the specific drughigh receptor and druglow receptor used in the different cellular assays, they are indicated as wild type or with mutations. Then, plasmid DNA was mixed with 50 μl opti-MEM (Thermo Fisher) and 600 ng of polyethyleneimine (Polysciences, catalog no. 24765-1). For drug treatment experiments, drugs were added 12 h post-transfection and incubated with cells for 24 h before the SEAP reporter detection assay.
SEAP activity (U l^−1) in cell culture supernatants was quantified by kinetic measurements at 405 nm (1 minute per measurement for 30 cycles) of absorbance increase due to phosphatase-mediated hydrolysis of para-nitrophenyl phosphate (pNPP).
Binding affinities of SPR drug competition assays were calculated using three-parameter nonlinear regression in GraphPad Prism (v.8.3.0). Representative data of cell assays are presented as individual values and mean values (bars). n = 3 refers to biological replicates. All IC50 or EC50 values of cell assays reported were calculated using four-parameter nonlinear regression ± s.d. Bandpass features of cutoff concentrations and Bandwidth90% were estimated based on the curve fitted using bell-shaped curve nonlinear regression in GraphPad Prism (v.8.3.0). […]
Supplementary Figure 4: Design, screening and validation of BclXLhigh variants. a) Screening of BclXLhigh variants in the GEMS platform. […]
Dissociation constant measurement of BclXLhigh-v(1-3) and LD3. Equilibrium curves are fitted using […]
BclXLhigh-v1 (purple), BclXLhigh-v2 (blue), […]
a) Bcl2high-based bandpass filter designs were developed and to respond to different concentrations of […]
corresponding inhibitor. c) Screening of Bcl2high-based bandpass filter variants in the GEMS platform.
The designed binder LD3 was fused to the druglow-receptor (PSV40-IgK-Bcl2-LD3-EpoRm-IL-6RBm-pA) in one EpoR chain and Bcl2high variants with the insensitive Bcl2 (iBcl2) as control in the other EpoR chain (PSV40-IgK-Bcl2high-EpoRm-IL-6RBm-pA). HEK293T cells were transfected with indicated […]
the mean of six biological replicates ± s.d., overlaid with a scatter dot plot of the original data points.
(1 picture or pasted object on this page, not shown here)
Supplementary Figure 6: Binding affinities and drug resistances of Bcl2high-v(2,4,5) assessed by […]
a) Measurement of dissociation constants for Bcl2high-v(2,4,5) and LD3 interactions. Equilibrium curves […]
Bcl2high-v(2,4,5) measured by SPR. 5 μM of Bcl2 or indicated variants were mixed with 10 μM of […]
Bcl2high-v2 (red), Bcl2high-v4
Supplementary Figure 7: Screening of LD3 variants in CBPA11-v(1-3) and raw data of CBPA11-v(1,3) with LD3-v3 variant. a-c) Screening of LD3 and LD3-v(1-3) variants in complex with BclXL for more sensitive CBPA11-v1 (a), CBPA11-v2 (b), CBPA11-v3 (c) in the GEMS platform. The LD3 variants replaced the role of LD3 (PSV40-IgK-BclXL-LD3-v(1-3)-EpoRm-IL-6RBm-pA) in one EpoR chain and BclXLhigh-v(1-3) in the other EpoR chain (PSV40-IgK-BclXLhigh-V(1-3)-EpoRm-IL-6RBm-pA). HEK293T cells were transfected with […]

CN(C)CC#Cc1ccc(OCCCc2sc(N3CCc4cccc(C(=O)Nc5nc6ccccc6s5)c4C3)nc2C(=O)O)c(F)c1 [A-1155463]
Normalized data (SEAP) (A-1155463 10 nM): 57.1742 | Raw data (SEAP) (A-1155463 10 nM): 4.199 | Normalized data (SEAP) (A-1155463 31.6 nM): 64.0307 | Raw data (SEAP) (A-1155463 31.6 nM): 4.702 | Normalized data (SEAP) (A-1155463 100 nM): 100 | Raw data (SEAP) (A-1155463 100 nM): 7.344 | Normalized data (SEAP) (A-1155463 316 nM): 98.6857 | Raw data (SEAP) (A-1155463 316 nM): 7.247 | Normalized data (SEAP) (A-1155463 1000 nM): 76.9661 | Raw data (SEAP) (A-1155463 1000 nM): 5.652 | Normalized data (SEAP) (A-1155463 3160 nM): 98.598 | Raw data (SEAP) (A-1155463 3160 nM): 7.241 | Normalized data (SEAP) (A-1155463 10000 nM): 93.3297 | Raw data (SEAP) (A-1155463 10000 nM): 6.854 | SEAP, replicate values (Supplementary Figure 9e, CBPA11-v3-BclXLv2, A-1155463 1 nM): 84.4482 and 81.7463 and 104.541 | SEAP, replicate values (Supplementary Figure 9e, CBPA11-v3-BclXLv2, A-1155463 3.18 nM): 146.322 and 134.178 and 165.303 | SEAP, replicate values (Supplementary Figure 9e, CBPA11-v3-BclXLv2, A-1155463 10 nM): 324.719 and 293.474 and 344.378 | SEAP, replicate values (Supplementary Figure 9e, CBPA11-v3-BclXLv2, A-1155463 31.8 nM): 360.563 and 353.899 and 371.872 | SEAP, replicate values (Supplementary Figure 9e, CBPA11-v3-BclXLv2, A-1155463 100 nM): 397.777 and 391.029 and 415.369 | SEAP, replicate values (Supplementary Figure 9e, CBPA11-v3-BclXLv2, A-1155463 318 nM): 374.208 and 326.503 and 405.592 | SEAP, replicate values (Supplementary Figure 9e, CBPA11-v3-BclXLv2, A-1155463 1000 nM): 326.827 and 274.864 and 352.239 | SEAP, replicate values (Supplementary Figure 9e, CBPA11-v3-BclXLv2, A-1155463 3180 nM): 224.895 and 197.696 and 225.125 | SEAP, replicate values (Supplementary Figure 9e, CBPA11-v3, A-1155463 1 nM): 77.8998 and 72.2772 and 68.2722 | SEAP, replicate values (Supplementary Figure 9e, CBPA11-v3, A-1155463 3.18 nM): 101.26 and 74.5174 and 69.017 | SEAP, replicate values (Supplementary Figure 9e, CBPA11-v3, A-1155463 10 nM): 279.56 and 237.506 and 229.509 | SEAP, replicate values (Supplementary Figure 9e, CBPA11-v3, A-1155463 31.8 nM): 420.603 and 418.534 and 369.593 | SEAP, replicate values (Supplementary Figure 9e, CBPA11-v3, A-1155463 100 nM): 495.942 and 494.207 and 527.219 | SEAP, replicate values (Supplementary Figure 9e, CBPA11-v3, A-1155463 318 nM): 528.894 and 526.095 and 525.969 | SEAP, replicate values (Supplementary Figure 9e, CBPA11-v3, A-1155463 1000 nM): 429.812 and 444.52 and 449.13 | SEAP, replicate values (Supplementary Figure 9e, CBPA11-v3, A-1155463 3180 nM): 188.374 | SEAP, replicate values (Supplementary Figure 9d, CBPA11-v1-BclXLv2, A-1155463 1 nM): 111.205 and 87.5973 and 101.043 | SEAP, replicate values (Supplementary Figure 9d, CBPA11-v1-BclXLv2, A-1155463 3.18 nM): 157.154 and 178.429 and 193.635 | SEAP, replicate values (Supplementary Figure 9d, CBPA11-v1-BclXLv2, A-1155463 10 nM): 436.402 and 372.407 and 451.931 | SEAP, replicate values (Supplementary Figure 9d, CBPA11-v1-BclXLv2, A-1155463 31.8 nM): 433.431 and 447.679 and 460.586 | SEAP, replicate values (Supplementary Figure 9d, CBPA11-v1-BclXLv2, A-1155463 100 nM): 510.537 and 467.35 and 481.779 | SEAP, replicate values (Supplementary Figure 9d, CBPA11-v1-BclXLv2, A-1155463 318 nM): 466.109 and 461.812 and 531.315 | SEAP, replicate values (Supplementary Figure 9d, CBPA11-v1-BclXLv2, A-1155463 1000 nM): 444.141 and 425.472 and 444.224 | SEAP, replicate values (Supplementary Figure 9d, CBPA11-v1-BclXLv2, A-1155463 3180 nM): 353.967 and 340.947 and 373.905 | SEAP, replicate values (Supplementary Figure 9d, CBPA11-v1-BclXLv2, A-1155463 10000 nM): 194.487 and 169.62 and 189.065 | SEAP, replicate values (Supplementary Figure 9d, CBPA11-v1, A-1155463 1 nM): 63.0929 and 67.5149 and 84.3456 | SEAP, replicate values (Supplementary Figure 9d, CBPA11-v1, A-1155463 3.18 nM): 70.097 and 95.813 and 111.853 | SEAP, replicate values (Supplementary Figure 9d, CBPA11-v1, A-1155463 10 nM): 455.879 and 489.769 and 488.832 | SEAP, replicate values (Supplementary Figure 9d, CBPA11-v1, A-1155463 31.8 nM): 620.201 and 681.136 and 678.515 | SEAP, replicate values (Supplementary Figure 9d, CBPA11-v1, A-1155463 100 nM): 962.669 and 957.215 and 954.472 | SEAP, replicate values (Supplementary Figure 9d, CBPA11-v1, A-1155463 318 nM): 973.295 and 858.467 and 847.573 | SEAP, replicate values (Supplementary Figure 9d, CBPA11-v1, A-1155463 1000 nM): 855.269 and 763.206 and 684.986 | SEAP, replicate values (Supplementary Figure 9d, CBPA11-v1, A-1155463 3180 nM): 503.783 and 501.256 and 493.903 | SEAP, replicate values (Supplementary Figure 9d, CBPA11-v1, A-1155463 10000 nM): 194.615 and 191.032 and 215.159
